This note sets out measurements from ChEMBL document CHEMBL1123971, “Synthesis, platelet aggregation inhibitory activity, and in vivo antithrombotic activity of new 1,4-dihydropyridines” (J Med Chem, 1988).

Each structure is given as a SMILES string. Several values for one entry are separate records, joined by “and”; a condition that tells them apart may be missing. Equal values may be shown once.

As usually defined, the ED50 is the midpoint of the dose-response relation. Higher therefore signals a need for a large dose. For orientation: Inhibition means the drop in the measured response relative to a control, in per cent.

Format in all cases: functional
Test [1] is filed under the species Cavia porcellus. Briefly: Effect on guinea pig artia (beats/min), at the a dose of 0 M.
For test [2], the species on record is Cavia porcellus. The test can be described thus: Effect on guinea pig artia (beats/min), at the a dose of 10e-6 M.
For test [3], the species on record is Cavia porcellus. The test can be described thus: Effect on guinea pig artia (beats/min), at the a dose of 10e-9 M.
The species entered for test [4] is Cavia porcellus. The test can be described thus: Effect on guinea pig artia (beats/min), at the a dose of 10e-8 M.
The species named for test [5] is Cavia porcellus. The test can be described thus: Effect on guinea pig artia (beats/min), at the a dose of 10e-7 M.
The species entered for test [6] is Mus musculus. Briefly: Dose required to protect 50% of tested mice against experimental antithrombosis.
The species named for test [7] is Oryctolagus cuniculus. The test can be described thus: Effect on 35 mM K+-induced contraction on rabbit aorta at a dose of 10e-9 mol/L.
Test [8] is filed under the species Oryctolagus cuniculus. The test can be described thus: Effect on 35 mM K+-induced contraction on rabbit aorta at a dose of 10e-8 mol/L.
The species named for test [9] is Oryctolagus cuniculus. The test can be described thus: Effect on 35 mM K+-induced contraction on rabbit aorta at a dose of 10e-7 mol/L.
Test [10] is filed under the species Oryctolagus cuniculus. The test can be described thus: Effect on 35 mM K+-induced contraction on rabbit aorta at a dose of 3*10e-9 mol/L.
The species entered for test [11] is Oryctolagus cuniculus. The test can be described thus: Effect on 35 mM K+-induced contraction on rabbit aorta at a dose of 3*10e-8 mol/L.
Test [12] is filed under the species Mus musculus. The test can be described thus: Effective dose of the compound required to protect […] tested mice against experimental antithrombosis.

For the compound `CCOC(=O)C1=C(C)NC(C)=C(C(=O)OC)C1c1cccc([N+](=O)[O-])c1` (stereo not given) [NITRENDIPINE], the Beats/min in the test listed under Cavia porcellus [1] came to 190; in the test filed under Cavia porcellus [2] it was 153; in the test listed under Cavia porcellus [3], 190; in the test filed under Cavia porcellus [4], 185; in the test filed under Cavia porcellus [5], 179. Further, the Control in the test listed under Cavia porcellus [1] is on record as 100%; in the test listed under Cavia porcellus [2], 81%; in the test listed under Cavia porcellus [3], 100%; in the test filed under Cavia porcellus [4] it was 97.5%; in the test filed under Cavia porcellus [5], 94%.

In the case of `OCCN(CCO)c1nc(N2CCCCC2)c2nc(N(CCO)CCO)nc(N3CCCCC3)c2n1` [DIPYRIDAMOLE], the ED50 in the test listed under Mus musculus [6] was 143 µmol/kg and 72 mg/kg.

In the case of `CO/C(O)=C1\C(C)=NC(C)=C(C(=O)OCCN2C(=O)c3ccccc3S2(=O)=O)C1C` (stereo not given), the ED50 in the test listed under Mus musculus [6] is 138 µmol/kg and 59.9 mg/kg.

Regarding `CCO/C(O)=C1\C(C)=NC(C)=C(C(=O)OCN2C(=O)c3ccccc3S2(=O)=O)C1C` (stereo not given), the ED50 in the test listed under Mus musculus [6] is 134 µmol/kg and 58.3 mg/kg.

Take `COC(=O)C1=C(C)NC(C)=C(C(=O)OC)C1c1ccccc1[N+](=O)[O-]` [NIFEDIPINE]: the Inhibition in the test listed under Oryctolagus cuniculus [7] was 18.28%; in the test listed under Oryctolagus cuniculus [8], 73.66%; in the test listed under Oryctolagus cuniculus [9], 100%; in the test filed under Oryctolagus cuniculus [10], 41.73%; in the test filed under Oryctolagus cuniculus [11] it was 88.35%. Besides, in the test filed under Mus musculus [6], the ED50 was 6.93 µmol/kg and 2.4 mg/kg.

On to `CC1=NC(C)=C(C(=O)OCCNC(=O)c2ccccc2O)C(C)/C1=C(\O)OCCN1C(=O)c2ccccc2S1(=O)=O` (stereo not given), for which the ED50 in the test listed under Mus musculus [6] was 51.4 µmol/kg and 30 mg/kg.

Consider `Clc1ccccc1CN1CCc2sccc2C1` [TICLOPIDINE], for which the ED50 in the test filed under Mus musculus [6] is 152 µmol/kg and 40 mg/kg.

Consider `CO/C(O)=C1\C(C)=NC(C)=C(C(=O)OCN2C(=O)c3ccccc3S2(=O)=O)C1C` (stereo not given), for which the ED50 in the test listed under Mus musculus [6] is > 220 µmol/kg and > 100 mg/kg.

Turning to `CCCCC1C(C(=O)OCCN2C(=O)c3ccccc3S2(=O)=O)=C(C)N=C(C)/C1=C(/O)OC` (stereo not given), the ED50 in the test listed under Mus musculus [6] was 78.4 µmol/kg and 37.3 mg/kg.

Regarding `CC(=O)Oc1ccccc1C(=O)O` [ASPIRIN], the ED30 in the test listed under Mus musculus [12] was 166.66 µM/kg; in the test filed under Mus musculus [12] (Mus musculus, read-out: ED30), 30 mg/kg.
